Four compounds from PMC12537910, “Mosquito salivary sialokinin reduces monocyte activation and chikungunya virus-induced inflammation via neurokinin receptors” (Nature Communications, 2025) can be followed below.

What all share (assay type): cell-based
In one experiment the test system is primary human monocytes. The experiment is described as follows: CD169 expression after antagonist/inhibitor pre-treatment and sialokinin, monocytes. The following applies: for CD 169 expression (MFI): monocytes 24 h, n = 5; for effect on sialokinin-mediated downregulation of CD169: pre-treatment 30 min before sialokinin, monocytes. The protocol: (§1) DEG analysis was performed using edgeR, with multiple testing corrected via the Benjamini–Hochberg FDR method. […] Relative expression levels of P-PI3K/PI3K (n = 4 biological replicates) and P-Akt/Akt (n = 5 biological replicates) in monocytes at the 20-min time point were quantified with ImageJ. Levels are expressed as fold change relative to the non-treated controls. Bar graphs represent the mean ± standard deviation (SD). […] CD169 levels at 24 h post-treatment were measured by mean fluorescence intensity (MFI) and expressed as fold change relative to non-treated controls. Statistical comparisons were performed using paired two-tailed t-test or Wilcoxon signed-rank test, depending on data distribution.
(§2) Freshly purified human monocytes and six-day-differentiated MDMs ([…] cells/well) were incubated with or without sialokinin peptides in complete IMDM supplemented with 10% (vol/vol) HS (Sigma-Aldrich) and 1% (vol/vol) penicillin-streptomycin. Untreated monocytes and MDMs served as no-treatment controls.
Following harvesting, human monocytes and MDMs were specifically stained for the surface markers: CD45, CD14, CCR2, HLA-DR, CD16, CD11b, and CD169 (for monocytes); or CD45, CD14, HLA-DR, CD64, CD86, CD163, CD206, and CD169 (for MDMs). Dead cells were excluded by staining with the LIVE/DEAD Fixable Aqua Dead Cell Stain Kit (Life Technologies). The stained cells were subsequently incubated with FACS lysing solution (BD Biosciences) to lyse the red blood cells. Data were acquired on a Fortessa flow cytometer (BD Biosciences) with BD FACSDiva software version 9.0. Data analysis was performed using FlowJo version 9.3.2 (Tree Star, Inc.).

For experiment [1], the target named is T1, human NK1R (Homo sapiens, UniProt P25103).
T1 construct: expressed in transfected cells; host or cells: CHO (CHO-K1) cells, stably transfected; gift from Dr Shinya Oishi, Kyoto University
The text has this:
(§3) Supplementary Fig. 1: Molecular properties of sialokinin and its binding affinities to human neurokinin
(§4) (1 picture or pasted object on this page, not shown here)

The next experiment relates to PI3K. The experiment is described as follows: Western blot P-PI3K/PI3K, human monocytes. The following applies: for effect on sialokinin-stimulated phosphorylation of PI3K: antagonist pre-treatment. As for the experimental part: as §1, §2
(§5) To detect the phosphorylation status of PI3K/Akt kinases following sialokinin stimulation, cells were lysed with lysis buffer (Cell Signaling Technology) containing 2 mM PMSF. Lysates were separated by SDS-PAGE and subjected to western blotting using the following antibodies: P-PI3K (p85; Tyr458/p55; Tyr199, Cell Signaling Technology, 1:2000), PI3K (p85, Cell Signaling Technology, 1:2000), P-Akt (Ser473, Cell Signaling Technology, 1:2000), and Akt (Cell Signaling Technology, 1:2000). Signal intensities were visualized using a ChemiDoc imaging system (Bio-Rad) and quantified using Image Lab software version 6.0.1 (Bio-Rad).

In the next experiment the test system is Akt. The experiment is described as follows: Western blot P-Akt/Akt, human monocytes. The following applies: for effect on sialokinin-stimulated phosphorylation of Akt: antagonist pre-treatment. The protocol:
as §1, §2, §5

For experiment [2], the target named is T1, human NK1R. The experiment is described as follows: Calcium flux assay, CHO cells expressing human NK1R. The following applies: CHO-K1 cells expressing human NK1R; FLIPR; mean ± SEM of three independent experiments in triplicate; read-out: EC50 (peak calcium response). The protocol: (§6) We assessed the binding affinity of sialokinin I, the predominant form in Aedes saliva, for human NK receptors using a calcium flux assay.
(§7) Calcium flux assay was carried out on CHO cells stably transfected with one of the human NK receptors (NK1R, NK2R, or NK3R). CHO cells were seeded at a density of 70,000 cells/well in 100 µL of Ham’s F-12 media in a black 96-well clear-bottom plate (Greiner). After overnight incubation, the media was replaced with Calcium 6 assay dye from Molecular Devices (1:1 dilution with buffer solution of 1× HBSS containing 20 mM HEPES) followed by incubation for 2 h at 37 °C for the absorption of dye into the cytoplasm. The intracellular calcium ion flux analysis was performed at different concentrations of sialokinin (tenfold dilution) using a FLIPR Tetra instrument (Molecular Devices). Fluorescence signal was recorded at excitation and emission wavelengths of 485 nm and 535 nm, respectively. The change in fluorescence is presented as the percent change with respect to baseline fluorescence. EC50 values were determined from dose-response curves plotted using Prism 5 (GraphPad).
as §3, §4

Another experiment deals with T2, human NK2R (Homo sapiens, UniProt P21452).
T2 construct: expressed in transfected cells; host or cells: CHO (CHO-K1) cells, stably transfected; gift from Dr Shinya Oishi, Kyoto University
T2 sequence (P21452 1-398): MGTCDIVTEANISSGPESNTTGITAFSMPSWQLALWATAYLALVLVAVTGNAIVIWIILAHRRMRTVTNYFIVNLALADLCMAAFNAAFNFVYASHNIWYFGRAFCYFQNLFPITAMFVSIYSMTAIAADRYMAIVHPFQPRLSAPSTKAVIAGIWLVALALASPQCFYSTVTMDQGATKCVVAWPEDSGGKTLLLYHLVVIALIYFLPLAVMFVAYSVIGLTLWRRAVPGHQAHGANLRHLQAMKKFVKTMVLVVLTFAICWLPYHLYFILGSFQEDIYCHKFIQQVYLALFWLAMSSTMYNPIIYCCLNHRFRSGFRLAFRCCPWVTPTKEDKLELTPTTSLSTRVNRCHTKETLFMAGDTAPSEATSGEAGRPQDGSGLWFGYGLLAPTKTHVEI
The experiment is described as follows: Calcium flux assay, CHO cells expressing human NK2R. The following applies: CHO-K1 cells expressing human NK2R; FLIPR; mean ± SEM of three independent experiments in triplicate; read-out: EC50 (peak calcium response). The protocol:
as §6, §7, §3, §4

Another experiment has as its target T3, human NK3R (Homo sapiens, UniProt P29371).
T3 construct: expressed in transfected cells; host or cells: CHO (CHO-K1) cells, stably transfected; gift from Dr Shinya Oishi, Kyoto University
T3 sequence (P29371 1-465): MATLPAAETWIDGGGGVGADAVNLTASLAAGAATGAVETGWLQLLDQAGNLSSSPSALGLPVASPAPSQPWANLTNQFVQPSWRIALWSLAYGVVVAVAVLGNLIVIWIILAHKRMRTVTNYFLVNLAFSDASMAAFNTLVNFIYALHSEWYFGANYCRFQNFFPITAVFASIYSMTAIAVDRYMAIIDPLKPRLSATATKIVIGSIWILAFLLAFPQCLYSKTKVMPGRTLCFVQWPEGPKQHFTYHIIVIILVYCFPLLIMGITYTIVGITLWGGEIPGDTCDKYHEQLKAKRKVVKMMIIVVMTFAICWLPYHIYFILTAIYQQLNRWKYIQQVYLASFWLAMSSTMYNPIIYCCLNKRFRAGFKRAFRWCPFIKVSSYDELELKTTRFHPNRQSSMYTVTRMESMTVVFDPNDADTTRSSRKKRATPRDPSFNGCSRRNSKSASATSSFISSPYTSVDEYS
The experiment is described as follows: Calcium flux assay, CHO cells expressing human NK3R. The following applies: CHO-K1 cells expressing human NK3R; FLIPR; mean ± SEM of three independent experiments in triplicate; read-out: EC50 (peak calcium response). The protocol:
as §6, §7, §3, §4

[3] abbreviates: GR-159897 + sialokinin, individual replicates.

Where “and” joins values, the source holds several entries; their conditions need not be identical. Identical values can stand only once. No end group written: not given here.

T1 sequence (P25103 whole entry): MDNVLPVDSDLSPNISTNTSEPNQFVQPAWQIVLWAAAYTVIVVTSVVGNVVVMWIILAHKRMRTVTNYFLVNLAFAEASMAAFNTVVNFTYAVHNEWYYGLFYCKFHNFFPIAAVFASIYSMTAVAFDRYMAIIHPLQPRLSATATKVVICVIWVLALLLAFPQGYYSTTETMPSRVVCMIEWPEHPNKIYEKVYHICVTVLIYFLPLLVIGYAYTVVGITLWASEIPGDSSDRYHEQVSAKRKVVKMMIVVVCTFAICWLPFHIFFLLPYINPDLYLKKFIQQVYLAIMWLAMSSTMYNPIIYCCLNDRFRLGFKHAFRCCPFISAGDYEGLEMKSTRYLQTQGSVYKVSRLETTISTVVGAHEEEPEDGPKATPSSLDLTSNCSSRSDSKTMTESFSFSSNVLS

For `COc1ccccc1CN[C@H]1C2CCN(CC2)[C@H]1C(c1ccccc1)c1ccccc1` [CP-96345], the “CD 169 expression (MFI)” value was 387 MFI and 396 MFI and 194 MFI and 919 MFI and 1966 MFI in the experiment with primary human monocytes (CP-96345 + sialokinin, individual replicates); 586 MFI and 529 MFI and 236 MFI and 1225 MFI and 3060 MFI in the experiment on primary human monocytes (CP-96345 inhibitor only, individual replicates). In addition, in the experiment on primary human monocytes, the “effect on sialokinin-mediated downregulation of CD169” value (from here on “effect … of CD169”) is “only partially neutralized”. Besides, the “effect on Emax of sialokinin at NK1R” value at human NK1R [1] is “without affecting the Emax value”. Further, the “effect on sialokinin-stimulated phosphorylation of PI3K” value in the experiment on PI3K is reported as “reduced”. Further, in the experiment on Akt, the “effect on sialokinin-stimulated phosphorylation of Akt” value is recorded as “reduced”.

Take `COC1(C[S@@+]([O-])c2ccccc2)CCN(CCc2c[nH]c3ccc(F)cc23)CC1` [GR-159897]: in the experiment with primary human monocytes (setting [3]), the “CD169 relative fold change” value is 0.8629 and 0.8036 and 0.6381 and 0.8197 and 0.5757; the “CD 169 expression (MFI)” value was 1530 MFI and 1669 MFI and 977 MFI and 2300 MFI and 1731 MFI. Moreover, the “CD 169 expression (MFI)” value in the experiment on primary human monocytes (GR-159897 inhibitor only, individual replicates) is 1773 MFI and 2077 MFI and 1531 MFI and 2806 MFI and 3007 MFI. The “effect … of CD169” value in the experiment on primary human monocytes is on record as “only partially neutralized”. The “effect on sialokinin-stimulated phosphorylation of PI3K” value in the experiment with PI3K is reported as “reduced”. The “P-PI3K/PI3K (expression relative to untreated control)” value in the experiment on PI3K (pre-treatment with NK2R antagonist then sialokinin, 20 min, individual replicates, n = 4) is 0.877 and 0.977 and 0.987 and 0.967. In addition, the “effect on sialokinin-stimulated phosphorylation of Akt” value in the experiment with Akt was “reduced”. The “P-Akt/Akt (expression relative to untreated control)” value in the experiment with Akt (pre-treatment with NK2R antagonist then sialokinin, 20 min, individual replicates, n = 5) is 0.9906 and 1.222 and 1.192 and 0.816 and 0.7836.

`O=c1cc(N2CCOCC2)oc2c(-c3ccccc3)cccc12` [LY-294002]: the “CD 169 expression (MFI)” value in the experiment with primary human monocytes (LY-294002 + sialokinin, individual replicates) is 182 MFI and 164 MFI and 106 MFI and 91.9 MFI and 143 MFI; in the experiment with primary human monocytes (LY-294002 inhibitor only, individual replicates), 216 MFI and 280 MFI and 107 MFI and 103 MFI and 164 MFI. Further, the “effect … of CD169” value in the experiment with primary human monocytes was “completely blocked”.

In the case of NTGDKFYGLM-NH2 [Sialokinin I], the results for the 50% effective concentration (EC50) on human NK1R [2], on human NK2R and at human NK3R were 0.052 ± 0.028 nM, 0.288 ± 0.107 nM and 1.29 ± 0.281 nM, respectively.
